Results reported in patent publication EP0514268A1, “Substituted amino acid azetidinyl pyridone derivatives, their preparation and use as medicines” (LABORATORIOS DEL DR. ESTEVE, S.A., priority 1991, dated 1992).
≈ marks a conversion by molar mass, not a printed value.

How the values were obtained:
[1] = test system: Strep. faecalis ATCC 10541; assay: Antimicrobial activity, agar dilution; format: cell-based, Streptococcus faecalis; conditions: Enterococcus faecalis, ATCC10541, 20 h, Agar Dextrose dilutions, 37°C, 20 heures, read-out: Activité pharmacologique antimicrobienne (concentrations)
Description: (§1) L'activité pharmacologique antimicrobienne de ces composés a été étudiée selon les références exposées ci-dessous.
(§2) Activité pharmacologique antimicrobienne : G.L. Daquet et Y.A. Chabbect, techniques en bactériologie, Vol. 3, Flammarion Médecine-Sciences, Paris 1972, et W.B. Hugo et A.D. Rusell, Pharmaceutical Microbiology, Blackwell Scientific Publications, London, 1977.
(§3) Milieu de culture et solvant : Agar d'antibiotiques n° 1 (Oxoid CM 327) Bouillon de triptone-soja (Oxoid CM 129) Solution Physiologique Ringer 1/4 (Oxoid BR 52) Agar Dextrose (BBL 11165)
(§4) Microorganismes : "Bacillus subtilis" ATCC 6633 "Citrobacter freundii" ATCC 112606 "Enterobacter aerogenes" ATCC 15038 "Enterobacter cloacae" ATCC 23355 "Bacillus cereus" ATCC 1178 "Escherichia coli" ATCC 10799 "Escherichia coli" ATCC 23559 "Klebsiella pneumoniae" ATCC 10031 "Proteus vulgaris" ATCC 8427 "Morg. morganii" ATCC 8019 "Pseudomonas aeruginosa" ATCC 9721 "Pseudomonas aeruginosa" ATCC 10145 "Salmonella typhimurium" ATCC 14028 "Salmonella typhimurium" ATCC 6539 "Serratia marcescens" ATCC 13880 "Shigella flexnerii" ATCC 12022 "Staphylococcusepidermis" ATCC 155-1 "Staphylococcus aureus" ATCC 25178 "Streptococcus faecalis" ATCC 10541.
(§5) Chacun des microorganismes est ensemencé par strie dans des tubes d'Agar d'antibiotiques n° 1, et mis en incubation pendant 20 heures à 37°C. Ensuite, on prend une anse de culture, on ensemence dans un bouillon de Triptone-soja et on incube pendant 20 heures à 37°C. On dilue à 1/4 la culture obtenue avec une solution physiologique Ringer, de façon à obtenir une suspension normalisée de […] pour chaque organisme.
(§6) A partir d'une solution de 100 µg/ml, chaque produit est dilué dans l'Agar Dextrose (préalablement fondu et maintenu à 50°C) par dilutions successives de façon à obtenir les concentrations suivantes : 64-32-16-8-4-2-1-0,5-0,25-0,125 µg de dérivé/ml du milieu.
(§7) Postérieurement, chaque concentration de chaque produit est répartie dans des boîtes de Petri de 10 cm de diamètre, à raison de 10 ml de milieu par boîte et autant de boîtes que de microorganismes à tester.
(§8) Une fois le milieu refroidi, les boîtes sont ensemencées avec les inoculations à raison de 0,4 ml d'inoculation par boîte. On les étend avec une anse de Driglasky et on recueille le surnageant. Les boîtes ensemencées sont incubées à 37°C pendant 20 heures.
(§9) Les résultats obtenus sont décrits dans les tableaux suivants. Les concentrations sont données en µg/ml.

[2] = test system: Ps. aeruginosa ATCC 10145; assay: Antimicrobial activity, agar dilution; format: cell-based; conditions: Pseudomonas aeruginosa, ATCC10145, 20 h, Agar Dextrose dilutions, 37°C, 20 heures, read-out: Activité pharmacologique antimicrobienne (concentrations)
Description: as §1, §2, §3, §4, §5, §6, §7, §8, §9

[3] = test system: Bacillus cereus ATCC 11778; assay: Antimicrobial activity, agar dilution; format: cell-based; conditions: Bacillus cereus, ATCC11778, 20 h, Agar Dextrose dilutions, 37°C, 20 heures, read-out: Activité pharmacologique antimicrobienne (concentrations)
Description: as §1, §2, §3, §4, §5, §6, §7, §8, §9

[4] = test system: Staph. epidermidis ATCC 155-1; assay: Antimicrobial activity, agar dilution; format: cell-based; conditions: Staphylococcus epidermidis, ATCC155, 20 h, Agar Dextrose dilutions, 37°C, 20 heures, read-out: Activité pharmacologique antimicrobienne (concentrations)
Description: as §1, §2, §3, §4, §5, §6, §7, §8, §9

[5] = test system: Escherichia coli ATCC 10799; assay: Antimicrobial activity, agar dilution; format: cell-based; conditions: Escherichia coli, ATCC10799, 20 h, Agar Dextrose dilutions, 37°C, 20 heures, read-out: Activité pharmacologique antimicrobienne (concentrations)
Description: as §1, §2, §3, §4, §5, §6, §7, §8, §9

[6] = test system: Shigella flexnerii ATCC 12022; assay: Antimicrobial activity, agar dilution; format: cell-based; conditions: ATCC12022, 20 h, Agar Dextrose dilutions, 37°C, 20 heures, read-out: Activité pharmacologique antimicrobienne (concentrations)
Description: as §1, §2, §3, §4, §5, §6, §7, §8, §9

[7] = test system: Morg. morganii ATCC 8019; assay: Antimicrobial activity, agar dilution; format: cell-based; conditions: Morganella morganii, ATCC8019, 20 h, Agar Dextrose dilutions, 37°C, 20 heures, read-out: Activité pharmacologique antimicrobienne (concentrations)
Description: as §1, §2, §3, §4, §5, §6, §7, §8, §9

[8] = test system: Escherichia coli ATCC 23559; assay: Antimicrobial activity, agar dilution; format: cell-based; conditions: Escherichia coli, ATCC23559, 20 h, Agar Dextrose dilutions, 37°C, 20 heures, read-out: Activité pharmacologique antimicrobienne (concentrations)
Description: as §1, §2, §3, §4, §5, §6, §7, §8, §9

[9] = test system: Sal. typhi ATCC 6539; assay: Antimicrobial activity, agar dilution; format: cell-based; conditions: Salmonella enterica, 20 h, read-out: Activité pharmacologique antimicrobienne (concentrations)
Description: as §1, §2, §3, §4, §5, §6, §7, §8, §9

[10] = test system: Proteus vulgaris ATCC 8427; assay: Antimicrobial activity, agar dilution; format: cell-based; conditions: Proteus vulgaris, ATCC8427, 20 h, Agar Dextrose dilutions, 37°C, 20 heures, read-out: Activité pharmacologique antimicrobienne (concentrations)
Description: as §1, §2, §3, §4, §5, §6, §7, §8, §9

[11] = test system: Bacillus subtilis ATCC 6633; assay: Antimicrobial activity, agar dilution; format: cell-based; conditions: ATCC6633, 20 h, Agar Dextrose dilutions, 37°C, 20 heures, read-out: Activité pharmacologique antimicrobienne (concentrations)
Description: as §1, §2, §3, §4, §5, §6, §7, §8, §9

[12] = test system: Ps. aeruginosa ATCC 9721; assay: Antimicrobial activity, agar dilution; format: cell-based; conditions: Pseudomonas aeruginosa, ATCC9721, 20 h, Agar Dextrose dilutions, 37°C, 20 heures, read-out: Activité pharmacologique antimicrobienne (concentrations)
Description: as §1, §2, §3, §4, §5, §6, §7, §8, §9

[13] = test system: Ent. cloacae ATCC 23355; assay: Antimicrobial activity, agar dilution; format: cell-based, Enterobacter cloacae; conditions: Enterobacter cloacae, ATCC23355, 20 h, Agar Dextrose dilutions, 37°C, 20 heures, read-out: Activité pharmacologique antimicrobienne (concentrations)
Description: as §1, §2, §3, §4, §5, §6, §7, §8, §9

[14] = test system: Sal. typhimurium ATCC 14028; assay: Antimicrobial activity, agar dilution; format: cell-based, Salmonella typhimurium; conditions: Salmonella enterica, 20 h, Agar Dextrose dilutions, 37°C, 20 heures, read-out: Activité pharmacologique antimicrobienne (concentrations)
Description: as §1, §2, §3, §4, §5, §6, §7, §8, §9

[15] = test system: Staph. aureus ATCC 25178; assay: Antimicrobial activity, agar dilution; format: cell-based, Staphylococcus aureus; conditions: Staphylococcus aureus, ATCC25178, 20 h, Agar Dextrose dilutions, 37°C, 20 heures, read-out: Activité pharmacologique antimicrobienne (concentrations)
Description: as §1, §2, §3, §4, §5, §6, §7, §8, §9

[16] = test system: Serr. marcescens ATCC 13880; assay: Antimicrobial activity, agar dilution; format: cell-based, Serratia marcescens; conditions: Serratia marcescens, ATCC13880, 20 h, Agar Dextrose dilutions, 37°C, 20 heures, read-out: Activité pharmacologique antimicrobienne (concentrations)
Description: as §1, §2, §3, §4, §5, §6, §7, §8, §9

[17] = test system: Kleb. pneumoniae ATCC 10031; assay: Antimicrobial activity, agar dilution; format: cell-based, Klebsiella pneumoniae; conditions: Klebsiella pneumoniae, ATCC10031, 20 h, Agar Dextrose dilutions, 37°C, 20 heures, read-out: Activité pharmacologique antimicrobienne (concentrations)
Description: as §1, §2, §3, §4, §5, §6, §7, §8, §9

[18] = Solubility in water and at pH 7.4; format: physicochemical
Description: Un grand nombre des composés de l'invention manifestent une augmentation de la solubilité dans l'eau ainsi que de la solubilité à pH 7,4 lorsqu'on compare avec les composés de référence. L'augmentation de solubilité au pH physiologique peut favoriser l'absorption du produit et la solubilité élevée dans l'eau permet l'administration du composé par voie parentérale.

[19] = test system: Citr. freundii ATCC 11606; assay: Antimicrobial activity, agar dilution; format: cell-based, Citrobacter freundii; conditions: Citrobacter freundii, ATCC11606, 20 h, Agar Dextrose dilutions, 37°C, 20 heures, read-out: Activité pharmacologique antimicrobienne (concentrations)
Description: as §1, §2, §3, §4, §5, §6, §7, §8, §9

[20] = test system: Ent. aerogenes ATCC 15038; assay: Antimicrobial activity, agar dilution; format: cell-based, Enterobacter aerogenes; conditions: Klebsiella aerogenes, ATCC15038, 20 h, Agar Dextrose dilutions, 37°C, 20 heures, read-out: Activité pharmacologique antimicrobienne (concentrations)
Description: as §1, §2, §3, §4, §5, §6, §7, §8, §9

SMILES | MIC [1] [mg/L] | MIC [2] [mg/L] | MIC [3] [mg/L] | MIC [4] [mg/L] | MIC [5] [mg/L] | MIC [6] [mg/L] | MIC [7] [mg/L] | MIC [8] [mg/L] | MIC [9] [mg/L] | MIC [10] [mg/L] | MIC [11] [mg/L] | MIC [12] [mg/L] | MIC [13] [mg/L] | MIC [14] [mg/L] | MIC [15] [mg/L] | MIC [16] [mg/L] | MIC [17] [mg/L] | solubility ([18]; pH 7) [mg/mL] | solubility ([18]; water) [mg/mL] | MIC [19] [mg/L] | also measured
NCC(=O)NC1CN(c2nc3c(cc2F)c(=O)c(C(=O)O)cn3-c2ccc(F)cc2F)C1 [Exemple 4bG] | 16 (≈ 35.8 µM) | > 32 | 1 (≈ 2.24 µM) | 2 (≈ 4.47 µM) | 2 (≈ 4.47 µM) | 0.5 (≈ 1.12 µM) | 4 (≈ 8.94 µM) | 0.5 (≈ 1.12 µM) | 1 (≈ 2.24 µM) | 8 (≈ 17.9 µM) | 1 (≈ 2.24 µM) | 16 (≈ 35.8 µM) | 1 (≈ 2.24 µM) | 4 (≈ 8.94 µM) | 1 (≈ 2.24 µM) | 16 (≈ 35.8 µM) | 1 (≈ 2.24 µM) | 0.0076 (≈ 17 µM) | > 0.5 | 1 (≈ 2.24 µM) | MIC [20]: 1 mg/L (≈ 2.24 µM)
CC(C)C[C@H](N)C(=O)NC1CN(c2nc3c(cc2F)c(=O)c(C(=O)O)cn3-c2ccc(F)cc2F)C1 [Exemple 4bL, chlorhydratede l'acide 7-(3-Leu-amino-1-azétidinyl)-1-(2,4-difluorophényl)-6-fluoro-1,4-dihydro-4-oxo-1,8-naphtyridine-3-carboxylique] | 1 | 8 | 0.5 | 1 | 1 | 0.25 | 2 | 0.25 | 1 | 2 | 0.25 | 4 | 0.5 | 1 | 4 | 2 | 0.12 | 0.0231 | > 0.5 | 1 | MIC [20]: 0.5 mg/L
C[C@H](N)C(=O)N[C@@H]1CN(c2cc3c(cc2F)c(=O)c(C(=O)O)cn3-c2ccc(F)cc2F)[C@H]1C [Exemple 4eA] | 8 (≈ 16.9 µM) | 8 (≈ 16.9 µM) | 1 (≈ 2.11 µM) | 16 (≈ 33.7 µM) | 2 (≈ 4.22 µM) | 0.5 (≈ 1.05 µM) | 4 (≈ 8.43 µM) | 1 (≈ 2.11 µM) | 2 (≈ 4.22 µM) | 16 (≈ 33.7 µM) | 0.5 (≈ 1.05 µM) | 8 (≈ 16.9 µM) | 2 (≈ 4.22 µM) | 2 (≈ 4.22 µM) | 1 (≈ 2.11 µM) | 8 (≈ 16.9 µM) | 2 (≈ 4.22 µM) | > 0.5 | > 0.5 | 2 (≈ 4.22 µM) | MIC [20]: 2 mg/L (≈ 4.22 µM)
